Test results reported in patent publication US12714719B2, “Cannabinoids, pharmaceutical compositions comprising same and uses thereof” (TECHNION RESEARCH AND DEVELOPMENT FOUNDATION LIMITED, priority 2020, dated 2026).

Tests used:
Molt-4 cells = assay: AlamarBlue (resazurin) viability assay; format: cell-based
Description: Dose-dependent AlamarBlue® (resazurin) viability assays were performed on Molt-4 cells treated with different concentrations of three phytocannabinoids (CBD, CBDV and CF1) at different ratios, as shown in Table 2.
In order to determine the effect of cannabinoids on the reduction of the survival rate of cancer cells, dose-dependent AlamarBlue® (resazurin) viability assays were then performed on Molt-4 cells treated with single cannabinoids or a combination of two cannabinoids at the same concentration as that of the three phytocannabinoids present in the whole extract, as shown in Table 3. Particularly, CF1 alone, or in combination with one additional cannabinoid was examined to determine its capability to induce apoptosis of cancer cells.

DBTRG-05MG cells = assay: Hoechst / Propidium Iodide cell death imaging; format: cell-based; settings: 24 hours; for % of cell death, effect of adding the cannabinoid to CBD: DBTRG-05MG, purified cannabinoids at content of extract 2, 4 and 8 μg/ml, compared with CBD alone
Description: The effects of cannabinoids on the survival of tolerant glioblastoma (GBM) cancer cells harboring a NOTCH 4 mutation were examined.
DBTRG-05MG cells were cultured in 96 well plate (1×10^5 cells/well) until confluency and treated with DMSO as control, pure cannabidiol (CBD), and extracts CAN12 and CAN26 with increasing concentrations from 1 to 4 μg/ml (FIG. 2A).
In another experiment, cells were cultured in 96 well plate (1×10^5 cells/well) until confluency and treated for 24 hours with three molecules (CBD, CBDV and CF1) as compared to the whole extract. The treatments were performed using three extract concentrations: 2, 4 and 8 μg/ml (FIG. 2B). After 24 hours, cells were stained with Hoechst and Propidium Iodide (PI) and imaged by IXM micro system (Molecular Devices) in 10× magnification. Live and dead cells were analyzed by MetaXpress® software (Molecular Devices) and presented as percentages of cell death from total cells. The purified phytocannabinoids were diluted to contain the same content as in the extract, then were provided according to the extract concentrations.

Structure (SMILES)	inducing cancer cells death (Molt-4 cells; Molt-4, CF1 alone as a single cannabinoid (1a, 0.62 ng/μl))	potency among the three cannabinoids (CBD, CBDV, CF1) (Molt-4 cells; Molt-4, Table 3 compositions)	% of cell death, effect of adding the cannabinoid to CBD (DBTRG-05MG cells)	% of cell death (DBTRG-05MG cells; GBM DBTRG-05MG cells harboring a NOTCH 4 mutation, vs DMSO)
CCCCCc1cc(O)c(C2C=C(C)CCC2C(C)(C)O)c(O)c1 [CF1, 1,3-benzenediol,2-[(1R,6R)-6-(1-hydroxy-1-methylethyl)-3-methyl-2cyclohexen-1-yl]-5-pentyl]	showed efficacy	most potent	improved the activity of CBD alone	
C=C(C)[C@@H]1CCC(C)=C[C@H]1c1c(O)cc(CCCCC)cc1O [CBD, cannabidiol]				increased
C=C(C)[C@@H]1CCC(C)=C[C@H]1c1c(O)cc(CCC)cc1O [CBDV, cannabidivarin]			improved the activity of CBD alone	
